Experimental data reported in patent US20230390269A1, “METHOD OF TREATMENT WITH TRADIPITANT” (Vanda Pharmaceuticals Inc., priority 2017, published 2023).
Bridge positions count the residues as written; N and C are the ends. Square brackets hold non-standard residues; d marks the D form. Peptide text beside a SMILES is read from it. * marks the point of attachment. NH(β-GlcNAc) = CC(=O)N[C@@H]1[C@@H](O)[C@H](O)[C@@H](CO)O[C@H]1N*; Dap = NC[C@H](N)C(=O)O

Experiments:
NK-1 = target: T1, NK-1 (Homo sapiens, UniProt P25103); details: patients with IBS, double-blind study; cited from earlier work
T1 construct: host or cells: patients with IBS
T1 sequence (P25103 whole entry): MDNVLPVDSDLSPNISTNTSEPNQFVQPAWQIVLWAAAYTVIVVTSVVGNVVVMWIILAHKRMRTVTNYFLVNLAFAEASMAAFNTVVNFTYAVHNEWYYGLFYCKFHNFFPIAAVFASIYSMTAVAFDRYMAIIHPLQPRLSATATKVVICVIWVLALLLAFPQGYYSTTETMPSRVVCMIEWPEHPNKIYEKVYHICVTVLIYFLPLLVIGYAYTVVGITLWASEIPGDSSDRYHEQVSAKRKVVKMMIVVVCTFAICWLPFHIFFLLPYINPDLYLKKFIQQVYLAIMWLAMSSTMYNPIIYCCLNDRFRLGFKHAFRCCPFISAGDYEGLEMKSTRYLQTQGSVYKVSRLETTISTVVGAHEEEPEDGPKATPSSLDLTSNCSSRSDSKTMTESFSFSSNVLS

NK-1 receptor [1] = target: T2, NK-1 receptor (Meriones unguiculatus, UniProt Q5DUB1); assay: NK-1 agonist (GR73632, icv)-induced foot-tapping behavior in gerbils; format: in vivo, Mongolian gerbil
T2 construct: from tissue; host or cells: living gerbil, brain (icv agonist)
T2 sequence (Q5DUB1 whole entry): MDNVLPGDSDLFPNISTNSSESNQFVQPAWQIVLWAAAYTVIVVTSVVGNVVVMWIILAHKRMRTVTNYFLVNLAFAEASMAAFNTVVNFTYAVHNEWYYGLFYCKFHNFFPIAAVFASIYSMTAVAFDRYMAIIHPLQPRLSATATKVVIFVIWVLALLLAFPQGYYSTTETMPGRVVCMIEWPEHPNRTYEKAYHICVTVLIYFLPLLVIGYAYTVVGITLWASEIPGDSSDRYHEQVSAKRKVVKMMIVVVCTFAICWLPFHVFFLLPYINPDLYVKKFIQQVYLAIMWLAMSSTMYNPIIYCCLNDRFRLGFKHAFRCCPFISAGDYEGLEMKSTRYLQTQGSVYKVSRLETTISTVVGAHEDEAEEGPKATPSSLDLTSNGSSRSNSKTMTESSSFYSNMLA
Experimental: Male Mongolian gerbils (Harlan Sprague Dawley, Indianapolis, IN) weighing 26 to 40 grams are administered the selective neurokinin-1 receptor agonist GR73632 (3 pmol) via direct, vertical, free-hand intracerebroventricular (icy) injection to a depth of 4.5 mm below bregma with a cuffed 27-gauge needle attached to a 50 μl Hamilton syringe. Immediately after injection, animals are placed individually into isolated chambers with pressure-sensitive velocimeter platform floors (San Diego Instruments acoustic startle apparatus) that detect and quantify vibration. The San Diego Instruments “SR” DOS-based computer program is used on a PC to record the number of foot-taps over the following 6 to 10 minutes, beginning 30 seconds after the floor was lightly tapped. Raw data is converted with a Microsoft Excel macro that determines the number of events over threshold (125) in each 250-millisecond time bin over the 5.5 minutes following onset of observation. The total number and average intensity of events over the duration is determined. Total number of taps is analyzed with one-way ANOVA and post-hoc Dunnett's test using JMP statistical software.
A dose-response curve (with doses of 0.3, 1, 3 and 10 pmols, icy) is initially generated with the NK-1 agonist GR73632. […] The 3 pmol dose is subsequently chosen as the dose of choice for antagonism experiments.
NK-1 antagonists are tested for their ability to attenuate GR73632-induced foot tapping. NK-1 antagonists are administered (po) via oral feeding tube at doses and time points specified in each experiment. All animals receive only one dose of NK-1 antagonists in all tests.
NK-1 antagonists are administered at multiple doses (at least 3; one dose per animal) and response to GR73632 is measured.
Tradipitant is dissolved in 1% CMC/0.5% SLS/0.085% PVP vehicle.

NK-2 receptor [2] = target: T3, NK-2 receptor (Homo sapiens, UniProt P21452); details: in vivo; cited from earlier work
T3 sequence (P21452 1-398): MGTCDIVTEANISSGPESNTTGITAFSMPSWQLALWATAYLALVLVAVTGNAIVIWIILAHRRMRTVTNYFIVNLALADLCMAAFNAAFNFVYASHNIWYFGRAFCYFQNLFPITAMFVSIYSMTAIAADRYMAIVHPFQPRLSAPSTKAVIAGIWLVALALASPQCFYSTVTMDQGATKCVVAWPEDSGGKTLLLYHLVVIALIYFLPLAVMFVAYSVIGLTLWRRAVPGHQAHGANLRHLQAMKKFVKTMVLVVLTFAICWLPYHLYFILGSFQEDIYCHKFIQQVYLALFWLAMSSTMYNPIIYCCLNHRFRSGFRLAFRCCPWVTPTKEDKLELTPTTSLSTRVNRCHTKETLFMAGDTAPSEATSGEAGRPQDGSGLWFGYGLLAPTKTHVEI

nausea in gastroparesis = assay: Phase II study in patients with gastroparesis, open label extension; format: in vivo, human; details: 85 mg bid
Source text: In a phase II study of tradipitant in patients with gastroparesis, participants initially enter 4 week screening period prior to treatment with tradipitant, during which they answer a daily symptom questionnaire rating their nausea severity on a scale of […] 0 represents no nausea, 1 represents very mild nausea, 2 represents mild nausea, 3 represents moderate nausea, 4 represents severe nausea, and 5 represents very severe nausea. After the 4 week screening period, patients enter the double blind randomized portion of the study, in which they receive either tradipitant 85 mg bid, or placebo. After 4 weeks of blinded study drug treatment, patients have the opportunity to enter an additional 8 week open label extension, during which each subject receives tradipitant 85 mg bid. 64 subjects participate in at least one week of the open label tradipitant dosing portion of the study. The average daily diarized nausea scores are reported for subjects during the 4 week screening period and during the up to 8 week open label extension.

brain NK-1 receptors = assay: Occupancy of brain NK-1 receptors with tracer GR205171; format: in vivo; details: p.o., tracer GR205171 iv
Experimental: A tracer NK-1 antagonist compound (GR205171) is used to evaluate the ability of other NK-1 antagonists to occupy the brain NK-1 receptors. In these studies, the test compounds are administered orally and the tracer compound administered intravenously afterward. The occupancy of the NK-1 receptors is evaluated by quantitating the amount of the tracer compound bound to the brain NK-1 receptors after increasing doses of the test compounds.

NK-2 receptor [3] = target: T3, NK-2 receptor; assay: NK-2 receptor inhibition (selectivity panel); format: binding
Experimental: (§1) In addition, tradipitant is evaluated in a panel of 74 other receptors, enzymes, and ion channels.

NK-3 receptor = target: T4, NK-3 receptor (Homo sapiens, UniProt P29371); assay: NK-3 receptor inhibition (selectivity panel); format: binding
T4 sequence (P29371 1-465): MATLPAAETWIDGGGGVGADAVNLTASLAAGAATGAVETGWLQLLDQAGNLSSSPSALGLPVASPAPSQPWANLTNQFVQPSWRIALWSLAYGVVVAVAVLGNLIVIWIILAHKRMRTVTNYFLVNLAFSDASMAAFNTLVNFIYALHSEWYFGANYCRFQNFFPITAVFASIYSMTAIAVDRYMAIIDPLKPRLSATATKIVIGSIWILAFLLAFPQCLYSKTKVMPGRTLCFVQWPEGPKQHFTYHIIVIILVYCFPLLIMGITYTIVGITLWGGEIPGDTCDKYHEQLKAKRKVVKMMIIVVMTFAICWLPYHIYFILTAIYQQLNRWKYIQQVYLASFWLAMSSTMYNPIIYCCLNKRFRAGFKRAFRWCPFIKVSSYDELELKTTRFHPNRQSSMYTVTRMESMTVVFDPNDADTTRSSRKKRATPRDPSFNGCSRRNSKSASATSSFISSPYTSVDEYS
Experimental: as §1

[4] = test system: panel of 74 other receptors, enzymes, and ion channels; assay: Selectivity panel of 74 other receptors, enzymes and ion channels; format: binding
Experimental: By 3 different measures, tradipitant is also a potent centrally active NK-1 antagonist in vivo.
as §1

NK-1 receptor [5] = target: T5, NK-1 receptor (Cavia porcellus, UniProt P30547); assay: GR73632-induced vocalization in guinea pigs; format: in vivo, guinea pig
T5 construct: from tissue; host or cells: living guinea pig, brain (icv agonist)
T5 sequence (P30547 whole entry): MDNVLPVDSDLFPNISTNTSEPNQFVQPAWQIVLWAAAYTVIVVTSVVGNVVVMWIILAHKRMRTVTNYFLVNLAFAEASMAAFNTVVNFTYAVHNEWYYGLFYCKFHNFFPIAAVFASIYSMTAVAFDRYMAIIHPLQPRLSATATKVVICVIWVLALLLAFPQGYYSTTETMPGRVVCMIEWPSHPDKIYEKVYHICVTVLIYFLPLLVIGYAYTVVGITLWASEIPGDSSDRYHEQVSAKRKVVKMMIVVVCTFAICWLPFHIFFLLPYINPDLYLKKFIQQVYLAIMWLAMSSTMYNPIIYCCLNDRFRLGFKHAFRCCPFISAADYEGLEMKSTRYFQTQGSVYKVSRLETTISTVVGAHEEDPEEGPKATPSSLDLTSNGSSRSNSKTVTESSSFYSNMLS
Experimental: When introduced into the brain, the NK-1 receptor agonist, substance P (SP) elicits distress vocalizations in the guinea pig that can be inhibited by NK-1 antagonists (Kramer et al. 1998; Rupniak et al. 2000).
Male Dunkin/Hartley guinea pigs (200 to 250 grams) are orally administered either vehicle or an NK-1 antagonist. Approximately 45 minutes later (for dose response studies), the animals are anesthetized and 0.1 nmol of GR73632 (SP analog) in a vehicle volume of 5 μl is injected into the cerebral ventricle at the intersection of bregma and the midline of the skull. Animals are placed in a dark testing chamber located inside of a sound attenuation cubicle and vocalizations are recorded for 30 minutes following recovery from anesthesia. The time spent vocalizing is quantified for each animal. In the duration of action study (FIG. 5), 0.1 mg/kg of tradipitant or vehicle solution is administered orally and then 2, 4, or 7 hours later, 0.1 nmol of GR73632 is administered into the cerebral ventricle as described above. Vocalizations are recorded and quantified as indicated above. Vehicle solutions are either CMC (FIG. 4 data) or a 10% ethanol/emulphor, 10% propylene glycol solution (FIGS. 5 and 6). Data is analyzed using one-tailed t-tests.

COc1ccc(C(C)C)cc1CN[C@H]1C2CCN(CC2)[C@H]1C(c1ccccc1)c1ccccc1 [CJ-11,974]
discomfort associated with rectosigmoidal distension (NK-1): alleviated the discomfort

C[C@@H](O[C@H]1OCCN(Cc2n[nH]c(=O)[nH]2)[C@H]1c1ccc(F)cc1)c1cc(C(F)(F)F)cc(C(F)(F)F)c1 [MK-869]
time after administration up to which foot-tapping is significantly inhibited (NK-1 receptor [1]; 1.2 mg/kg po): up to 24 hours | ED50, inhibition of foot-tapping behavior (NK-1 receptor [1]; po, GR 73632 3 pmol icv, gerbil): 0.4 ± 0.05 mg/kg

CC(=O)N[C@@H]1[C@@H](O)[C@H](O)[C@@H](CO)O[C@H]1NC(=O)C[C@@H]1NC(=O)[C@H](CC(C)C)NC(=O)[C@@H]2CNC(=O)C[C@H](NC1=O)C(=O)N[C@@H](Cc1c[nH]c3ccccc13)C(=O)N[C@@H](Cc1ccccc1)C(=O)N2 [nepadutant] (cyclo(D(NH(β-GlcNAc))DWF[Dap]L); lactam 2-5)
basal gastrointestinal motility (NK-2 receptor [2]): without affecting | motility-stimulating effect of neurokinin A (NK-2 receptor [2]): effectively antagonized

O=C(c1ccccc1Cl)c1cccnc1-c1nnn(Cc2cc(C(F)(F)F)cc(C(F)(F)F)c2)c1-c1ccncc1 [tradipitant, {2-[1-(3,5-bistrifluoromethylbenzyl)-5-pyridin-4-yl-1H-[1,2,3]triazol-4-yl]-pyridin-3-yl}-(2-chlorophenyl)-methanone]
change of average daily nausea score compared to pre-treatment (nausea in gastroparesis): reduced by approximately one half | change of average percentage of nausea-free days compared to pre-treatment (nausea in gastroparesis): doubled or greater | estimated ED50, brain NK-1 receptor occupancy (brain NK-1 receptors): 0.04 mg/kg | time after administration up to which foot-tapping is significantly inhibited (NK-1 receptor [1]; 0.1 mg/kg po): up to 7 hours | time after administration up to which foot-tapping is significantly reversed (NK-1 receptor [1]; 1 mg/kg): up to 16 hours | inhibition at the NK-2 receptor (NK-2 receptor [3]): no significant inhibition | inhibition at the NK-3 receptor (NK-3 receptor): no significant inhibition | activity in panel of 74 additional receptors, enzymes, and ion channels including NK-2 and NK-3 [4]: no significant activity | inhibition of binding ([4]; test concentration 1 μM, 74 targets): ≤ 50% | inhibition of vocalization at low doses (NK-1 receptor [5]; at and below 0.1 mg/kg, 0.05 and 0.025 mg/kg, p<0.001): retains significant inhibitory activity | suppression of agonist-induced vocalization, duration of activity study (NK-1 receptor [5]; single dose 0.1 mg/kg oral, 7 hours after administration): significantly active
